Assay results reported in EP0601184A1, “FUSED PYRIDAZINE COMPOUND AND PHARMACEUTICAL USE THEREOF” (YOSHITOMI PHARMACEUTICAL INDUSTRIES, LTD., priority 1991, dated 1993).

Assays:
[1] = tested on: male ddY mice; assay: Acute toxicity; type: in vivo; conditions: 5 days
Experimental: Groups of 5 male ddY mice were used. […] Similarly, the mice were orally administered with 1000 mg/kg of the compound, but they survived for 5 days after the administration.

[2] = tested on: GABA-induced chloride current; type: cell-based, American bullfrogs; conditions: dorsal root ganglion neurons
Experimental: The test was carried out according to the method of Akaike et al. reported in Journal of Physiology (London), 379, 171 (1986) using sensory neurons isolated from dosal root ganglion of American bullfrogs. Neurons were voltage-clamped at a holding membrane potential of -50 mV with a single-electrode voltage-clamp system. Test compounds were applied by using a concentration-clamp technique. When the peak Cl⁻ current (ICl) elicited by 3 x 10⁻⁶ M GABA alone was presented as 1, the augumentive ICl of the test compounds in the presence of 3 x 10⁻⁶ M GABA was measured. The results were presented as relative ICl values in Table 1.

[3] = molecular target: benzodiazepine (BZP) receptors; assay: Displacement ability for benzodiazepine receptor (tritiated diazepam binding, crude synaptosome fraction of cerebral cortex); set-up: species or system Wistar rats; conditions: displacement of tritiated diazepam (2 nM), 0°C, 20 minutes, rat cerebral cortex synaptosome fraction
Experimental: The test of specific binding to benzodiazepine (BZP) receptors was carried out according to the method described in Life Science, vol. 20, 2101 (1977).
The crude synaptosome fraction isolated from the cerebral cortex of male Wistar rats aged 9-10 weeks, was suspended in 50 mM Trishydrochloric acid buffer (pH 7.4) containing 120 mM sodium chloride and 5 mM potassium chloride. The suspension was used for the following experiment.
The test compound in several different concentrations and tritiated diazepam (in final concentration of 2 nM) were added to the synaptosomal suspension, and the mixture was incubated at 0°C for 20 minutes. The suspension was filtered with Whatman GF/B (Trademark) glassfiber filter. After the filter was washed with the above-mentioned buffer, the radio activity left on the filter was measured with a liquid scintillation counter.
The specific binding was determined by subtracting the binding in the presence of 10⁻⁶ M unlabelled diazepam from total binding.
The affinity for benzodiazepine receptors of the compound of the present invention is evaluated from its displacement ability for tritiated diazepam at its binding site, which is represented by Ki value (nM).

O=C(c1ccccc1)c1cc2c(s1)CCC1CC(=O)N(c3ccc(Cl)cc3)N=C21 (stereo not shown) [Example 16, 8-benzoyl-2-(4-chlorophenyl)-4,4a,5,6-tetrahydrothieno[2,3-h]cinnolin-3(2H)-one]
survival after administration ([1]; 300 mg/kg intraperitoneally, groups of 5 male ddY mice): all mice survived | survival after administration ([1]; 1000 mg/kg orally, male ddY mice): survived

CC(=O)c1cc2c(s1)CCCC1CC(=O)N(c3ccc(Cl)cc3)N=C21 (stereo not shown) [Example 18, 9-acetyl-2-(4-chlorophenyl)-2,4,4a,5,6,7-hexahydro-3H-thieno[2',3':6,7]cyclohepta[1,2-c]pyridazin-3-one]
Relative ICl [2]: 1.38 | Ki [3]: 4.2 nM
